Results: patent publication US5580775A, “High affinity, brain-specific nucleic acids encoding a L-proline transporter, and vectors, and host cells comprising the same” (Emory University, priority 1992, dated 1996)
Like-named read-outs stand apart in the source and are kept apart here. Peptide text beside a SMILES is read from it.

Columns and labels:
[1] = target: T1, rat brain L-proline transporter (Rattus norvegicus, UniProt P28573); assay: cell-based
T1 sequence (P28573 1-637): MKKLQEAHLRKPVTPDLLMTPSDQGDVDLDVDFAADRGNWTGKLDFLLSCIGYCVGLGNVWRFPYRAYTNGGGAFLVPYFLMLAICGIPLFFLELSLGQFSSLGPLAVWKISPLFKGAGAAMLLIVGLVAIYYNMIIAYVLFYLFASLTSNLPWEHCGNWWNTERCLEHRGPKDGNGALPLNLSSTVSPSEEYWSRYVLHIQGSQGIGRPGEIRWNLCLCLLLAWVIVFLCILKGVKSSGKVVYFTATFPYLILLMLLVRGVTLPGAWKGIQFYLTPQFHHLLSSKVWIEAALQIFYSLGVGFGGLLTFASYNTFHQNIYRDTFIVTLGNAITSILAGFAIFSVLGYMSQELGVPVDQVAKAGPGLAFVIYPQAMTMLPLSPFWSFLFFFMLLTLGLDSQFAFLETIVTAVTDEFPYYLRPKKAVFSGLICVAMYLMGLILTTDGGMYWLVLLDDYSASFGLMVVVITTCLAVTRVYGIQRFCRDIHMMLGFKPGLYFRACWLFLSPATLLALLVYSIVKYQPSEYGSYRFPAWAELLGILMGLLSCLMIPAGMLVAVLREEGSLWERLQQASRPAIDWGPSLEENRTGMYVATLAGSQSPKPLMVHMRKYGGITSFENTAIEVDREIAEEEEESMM

[2] = target: T1, rat brain L-proline transporter; assay: Transport of L-[3H]glutamate or D-[3H]aspartate in HeLa fibroblasts expressing the transporter cDNA; format: cell-based; conditions: transient expression in HeLa fibroblasts
[3] = target: T2, high affinity, Na^+ -dependent rat brain L-proline transporter (Rattus norvegicus, UniProt P28573); assay: L-proline uptake (saturation kinetics, Na+ dependence) in HeLa cells transfected with pPROT
T2 sequence (P28573 1-637): T1 sequence (P28573 1-637)

rat brain synaptosomes = conditions: cited from earlier work
[4] = substrate: O=C(O)[C@@H]1CCCN1; assay: cells, lysate or membranes; conditions: other: 20 min incubation, 50 nM L-[3H]proline plus unlabeled L-proline, HeLa cells transfected with pPROT
[5] = read-out: Ki values in excess of 100 μM (inhibition of proline uptake)
[6] = Ki (inhibition of proline uptake)
[7] = read-out: Ki (inhibition of proline uptake)

Work on `O=C(O)[C@H]1CCCN[C@H]1C(=O)O` (racemic) [(+/-)cis-2,3-piperidine dicarboxylic acid] yielded a Ki [1, 5] of over 100 µM.

Molecule `N[C@]1(C(=O)O)CC[C@H](C(=O)O)C1` (relative stereo) [Trans-ACPD, trans1-aminocyclopentane-1,3-dicarboxylic acid] has a Ki [1, 5] of over 100 µM.

For `NC1(C(=O)O)CC1` [1-Amino-1-cyclopropane carboxylic acid], the Ki [1, 5] was over 100 µM.

For `O=C(O)C1C=CCN1` (stereo not drawn) [3,4-Dehydroproline], the Ki [1, 6] was 31 µM.

In the case of `N[C@H](CC(=O)O)C(=O)O` [D-Aspartic acid], the “transport induced by the transporter cDNA (in words)” value [2] is reported as “did not induce transport” and the Ki [1, 5] is reported as over 100 µM.

Work on `CCCC[C@@H](N)C(=O)O` [D-Norleucine] yielded a Ki [1, 5] of over 100 µM.

Molecule `O=C(O)[C@H]1CCCN1` [D-Proline] has a Ki ([1]; Ki (inhibition of L-[3H]proline transport)) of over 100 µM and a Ki [1, 5] of over 100 µM.

For `NCCCC(=O)O` [GABA, gammaaminobutyric acid], the Ki [1, 5] was over 100 µM.

`NCC(=O)O` [Glycine] showed a Ki [1, 5] of over 100 µM.

`NCC(=O)N1CCC[C@H]1C(=O)O` [Glycylproline] (H-Gly-Pro-OH) gave a Ki [1, 5] of over 100 µM.

`NC1CCN(O)C1=O` (stereo not drawn) [HA-966, 3-Amino-1-hydroxy-2-pyrrolidone] gave a Ki [1, 5] of over 100 µM.

`O=C(O)[C@@H]1C[C@@H](O)CN1` [Hydroxyproline] showed a Ki [1, 5] of over 100 µM.

Work on `N[C@H](C(=O)O)c1cc(=O)[nH]o1` [Ibotenic acid] yielded a Ki [1, 5] of over 100 µM.

`C=C(C)[C@H]1CN[C@H](C(=O)O)[C@H]1CC(=O)O` [Kainic acid] showed a Ki [1, 5] of over 100 µM.

In the case of `C[C@H](N)C(=O)O` [L-Alanine], the Ki [1, 5] is reported as over 100 µM.

With `N=C(N)NCCC[C@H](N)C(=O)O` [L-Arginine] the Ki [1, 5] was over 100 µM.

With `NC(=O)C[C@H](N)C(=O)O` [L-Asparagine] the Ki [1, 5] was over 100 µM.

In the case of `N[C@@H](CC(=O)O)C(=O)O` [L-Aspartic acid], the “inhibition of L-proline uptake (in words)” value (from here on “inhibition”) [1] is reported as “inability” and the Ki [1, 5] is reported as over 100 µM.

`O=C(O)[C@@H]1CCN1` [L-Azetidine-2-carboxylic acid] gave a Ki [1, 7] of 115 µM and a Ki [1, 5] of over 100 µM.

In the case of `N[C@@H](CS)C(=O)O` [L-Cysteine], the Ki [1, 6] is reported as 91 µM.

In the case of `N[C@@H](CSSC[C@H](N)C(=O)O)C(=O)O` [L-Cystine], the Ki [1, 5] is reported as over 100 µM.

In the case of `N[C@@H](CCC(=O)O)C(=O)O` [L-Glutamic acid], the “transport induced by the transporter cDNA (in words)” value [2] is reported as “did not induce transport”, the “inhibition” value [1] is reported as “inability” and the Ki [1, 5] is reported as over 100 µM.

In the case of `NC(=O)CC[C@H](N)C(=O)O` [L-Glutamine], the Ki [1, 5] is reported as over 100 µM.

Molecule `N[C@@H](Cc1c[nH]cn1)C(=O)O` [L-Histidine] has a Ki [1, 6] of 83 µM.

With `CC[C@H](C)[C@H](N)C(=O)O` [L-Isoleucine] the Ki [1, 5] was over 100 µM.

Molecule `CC(C)C[C@H](N)C(=O)O` [L-Leucine] has a Ki [1, 5] of over 100 µM.

With `NCCCC[C@H](N)C(=O)O` [L-Lysine] the Ki [1, 5] was over 100 µM.

`CSCC[C@H](N)C(=O)O` [L-Methionine] gave a Ki [1, 5] of over 100 µM.

Work on `CCCC[C@H](N)C(=O)O` [L-Norleucine] yielded a Ki [1, 6] of 37 µM.

Molecule `N[C@@H](Cc1ccccc1)C(=O)O` [L-Phenylalanine] has a Ki [1, 6] of 48 µM.

`O=C(O)[C@@H]1CCCCN1` [L-Pipecolic acid] showed a Ki [1, 6] of 14 µM.

In the case of `NC(=O)[C@@H]1CCCN1` [L-Prolinamide], the Ki [1, 5] is reported as over 100 µM.

`COC(=O)[C@@H]1CCCN1` [L-Proline methyl ester] showed a Ki [1, 5] of over 100 µM.

Molecule `O=C1CC[C@@H](C(=O)O)N1` [L-Pyroglutamic acid] has a Ki [1, 5] of over 100 µM.

Work on `N[C@@H](CO)C(=O)O` [L-Serine] yielded a Ki [1, 5] of over 100 µM.

`C[C@@H](O)[C@H](N)C(=O)O` [L-Threonine] gave a Ki [1, 5] of over 100 µM.

In the case of `O=C(O)[C@H]1CN[C@H](C(=O)O)C1` [L-Trans-2,4-PDC, trans-L-pyrrolidone-2,4-dicarboxylate], the “inhibition” value [1] is reported as “none of the excitatory amino acid analogs examined, including the specific L-glutamate uptake blocker, trans-L-pyrrolidone-2, 4-dicarboxylate (L-trans-2,4-PDC) (Bridges et al., 1991), significantly inhibited L-proline uptake” and the Ki [1, 5] is reported as over 100 µM.

`N[C@@H](Cc1c[nH]c2ccccc12)C(=O)O` [L-Tryptophan] showed a Ki [1, 5] of over 100 µM.

For `N[C@@H](Cc1ccc(O)cc1)C(=O)O` [L-Tyrosine], the Ki ([1]; Ki values in excess of 100 μM (inhibition of proline uptake)) was over 100 µM.

Molecule `CC(C)[C@H](N)C(=O)O` [L-Valine] has a Ki [1, 5] of over 100 µM.

For `O=C(O)[C@@H]1CCCN1` [L-proline], the “specific L-proline uptake upon isotonic substitution of NaCl with choline chloride” value ([3]; Na+ dependence, choline chloride) was “abolished”, the Km ([3]; read-out: apparent Michaelis constant (Km), 20 min incubation, 50 nM L-[3H]proline plus unlabeled L-proline, HeLa cells transfected with pPROT) was about 9.7 µM and the “endogenous L-proline transport as percent of pPROT-induced transport” value (HeLa cells) was “less than 10%”. The Km (HeLa cells; read-out: Km of endogenous L-proline transport, plasmid vector-transfected HeLa cells) was over 200 µM, the Km (rat brain synaptosomes; read-out: Km, high affinity component, high affinity) was 6 to 12 µM and the Km (rat brain synaptosomes; read-out: Km, low affinity component, low affinity) was over 190 µM.

For `CC(=O)N1CCC[C@H]1C(=O)O` [N-acetylproline], the Ki [1, 5] was over 100 µM.

`CN[C@H](CC(=O)O)C(=O)O` [N-methyl-D-aspartate] gave a Ki [1, 5] of over 100 µM.

With `O=C(O)CNC(=O)[C@@H]1CCCN1` [Prolylglycine] (H-Pro-Gly-OH) the Ki [1, 5] was over 100 µM.

With `O=C(O)c1ccc[nH]1` [Pyrrole-2-carboxylic acid] the Ki [1, 5] was over 100 µM.

For `N[C@@H](Cn1oc(=O)[nH]c1=O)C(=O)O` [Quisqualic acid], the Ki [1, 5] was over 100 µM.

`CNCC(=O)O` [Sarcosine] gave a Ki [1, 7] of 30 µM.

B1: high affinity, Na^+ -dependent rat brain L-proline transporter (Rattus norvegicus) (protein)
chain: T1 sequence (P28573 1-637)
In the case of B1, the Km [4] is reported as 9.7 µM.
